Structures are written as SMILES.

Results on 19 compounds are retold here after US9938274B1, “Naphthyridine compounds, medical combinations and use thereof” (Nanjing Natinefy Pharmatech Co., Ltd., priority 2016, dated 2018).

One data set has as its system U87MG tumor. In words: Tumor xenograft model, U87MG, tumor growth inhibition. The conditions noted are these: 10 mg/kg p.o. QD, day 22. The class given is in vivo, nude mice (BALB/cA nu/nu).
A short description of data set [1]: In vivo pharmacokinetic study in rats. Here is the method:
An In Vivo Pharmacokinetic Study in Rats
For intravenous injection, rats are given a dose of 1 mg/kg. For oral administration, rats are given a dose of 5 mg/kg. […] The whole blood is centrifuged at 8000 rpm for 5 min to collect plasma, which is then transferred to 96-well pallet, and stored at −20° C. till LC-MS/MS testing.
Pharmacokinetic parameters among rats after medication are estimated using the non-compartment model of software WinNonlin.
The peak concentration, Cmax: the actual measurements are used;

A further data set concerns the target VEGFR-2 (h) (Homo sapiens (Human), UniProt P35968). In words: HTRF KinEASE TK kinase inhibition assay, VEGFR-2. The class given is biochemical. In general terms: Time-resolved FRET reads energy transfer from a long-lived donor to a nearby acceptor.
The target of another data set is c-Met (h) (Homo sapiens (Human), UniProt P08581). The experiment in a line: HTRF KinEASE TK kinase inhibition assay, c-Met. The class given is biochemical.
c-Met (h), sequence (P08581 25-1390): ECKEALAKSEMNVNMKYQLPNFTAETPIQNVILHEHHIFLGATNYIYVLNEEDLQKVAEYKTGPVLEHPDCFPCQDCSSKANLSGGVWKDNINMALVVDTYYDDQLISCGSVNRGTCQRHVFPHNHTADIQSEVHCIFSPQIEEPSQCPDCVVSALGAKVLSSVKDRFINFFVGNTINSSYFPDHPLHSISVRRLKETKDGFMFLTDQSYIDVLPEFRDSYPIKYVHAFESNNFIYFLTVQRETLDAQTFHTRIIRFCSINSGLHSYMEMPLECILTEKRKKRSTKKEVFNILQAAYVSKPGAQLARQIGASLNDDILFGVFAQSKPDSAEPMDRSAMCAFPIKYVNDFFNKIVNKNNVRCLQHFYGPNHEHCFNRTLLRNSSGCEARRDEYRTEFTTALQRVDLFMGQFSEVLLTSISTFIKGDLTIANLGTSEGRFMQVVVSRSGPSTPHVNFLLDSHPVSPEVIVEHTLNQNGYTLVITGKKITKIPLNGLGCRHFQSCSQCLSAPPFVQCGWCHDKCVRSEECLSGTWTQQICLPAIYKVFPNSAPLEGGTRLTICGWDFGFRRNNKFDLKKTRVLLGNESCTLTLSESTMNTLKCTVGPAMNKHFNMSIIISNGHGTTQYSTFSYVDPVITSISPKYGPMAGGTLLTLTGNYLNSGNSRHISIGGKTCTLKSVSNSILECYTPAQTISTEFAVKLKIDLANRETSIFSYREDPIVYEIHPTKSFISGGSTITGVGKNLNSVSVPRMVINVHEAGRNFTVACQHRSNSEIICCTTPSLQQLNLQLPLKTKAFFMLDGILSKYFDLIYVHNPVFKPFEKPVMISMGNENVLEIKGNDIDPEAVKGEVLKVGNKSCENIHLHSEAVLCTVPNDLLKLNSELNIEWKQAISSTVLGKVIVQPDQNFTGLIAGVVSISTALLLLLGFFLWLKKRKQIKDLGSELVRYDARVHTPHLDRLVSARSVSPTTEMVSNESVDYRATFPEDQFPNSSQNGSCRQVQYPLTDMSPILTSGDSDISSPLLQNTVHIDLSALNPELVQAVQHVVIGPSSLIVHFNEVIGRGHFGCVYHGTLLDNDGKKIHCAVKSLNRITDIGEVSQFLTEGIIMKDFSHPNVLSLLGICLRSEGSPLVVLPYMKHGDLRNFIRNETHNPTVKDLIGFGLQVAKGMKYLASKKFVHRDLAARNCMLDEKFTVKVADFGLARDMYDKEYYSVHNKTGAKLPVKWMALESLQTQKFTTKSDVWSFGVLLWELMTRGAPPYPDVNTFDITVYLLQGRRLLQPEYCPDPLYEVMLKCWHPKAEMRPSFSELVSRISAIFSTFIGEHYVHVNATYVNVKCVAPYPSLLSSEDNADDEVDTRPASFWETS

VEGFR-2 (h), sequence (P35968 20-1356): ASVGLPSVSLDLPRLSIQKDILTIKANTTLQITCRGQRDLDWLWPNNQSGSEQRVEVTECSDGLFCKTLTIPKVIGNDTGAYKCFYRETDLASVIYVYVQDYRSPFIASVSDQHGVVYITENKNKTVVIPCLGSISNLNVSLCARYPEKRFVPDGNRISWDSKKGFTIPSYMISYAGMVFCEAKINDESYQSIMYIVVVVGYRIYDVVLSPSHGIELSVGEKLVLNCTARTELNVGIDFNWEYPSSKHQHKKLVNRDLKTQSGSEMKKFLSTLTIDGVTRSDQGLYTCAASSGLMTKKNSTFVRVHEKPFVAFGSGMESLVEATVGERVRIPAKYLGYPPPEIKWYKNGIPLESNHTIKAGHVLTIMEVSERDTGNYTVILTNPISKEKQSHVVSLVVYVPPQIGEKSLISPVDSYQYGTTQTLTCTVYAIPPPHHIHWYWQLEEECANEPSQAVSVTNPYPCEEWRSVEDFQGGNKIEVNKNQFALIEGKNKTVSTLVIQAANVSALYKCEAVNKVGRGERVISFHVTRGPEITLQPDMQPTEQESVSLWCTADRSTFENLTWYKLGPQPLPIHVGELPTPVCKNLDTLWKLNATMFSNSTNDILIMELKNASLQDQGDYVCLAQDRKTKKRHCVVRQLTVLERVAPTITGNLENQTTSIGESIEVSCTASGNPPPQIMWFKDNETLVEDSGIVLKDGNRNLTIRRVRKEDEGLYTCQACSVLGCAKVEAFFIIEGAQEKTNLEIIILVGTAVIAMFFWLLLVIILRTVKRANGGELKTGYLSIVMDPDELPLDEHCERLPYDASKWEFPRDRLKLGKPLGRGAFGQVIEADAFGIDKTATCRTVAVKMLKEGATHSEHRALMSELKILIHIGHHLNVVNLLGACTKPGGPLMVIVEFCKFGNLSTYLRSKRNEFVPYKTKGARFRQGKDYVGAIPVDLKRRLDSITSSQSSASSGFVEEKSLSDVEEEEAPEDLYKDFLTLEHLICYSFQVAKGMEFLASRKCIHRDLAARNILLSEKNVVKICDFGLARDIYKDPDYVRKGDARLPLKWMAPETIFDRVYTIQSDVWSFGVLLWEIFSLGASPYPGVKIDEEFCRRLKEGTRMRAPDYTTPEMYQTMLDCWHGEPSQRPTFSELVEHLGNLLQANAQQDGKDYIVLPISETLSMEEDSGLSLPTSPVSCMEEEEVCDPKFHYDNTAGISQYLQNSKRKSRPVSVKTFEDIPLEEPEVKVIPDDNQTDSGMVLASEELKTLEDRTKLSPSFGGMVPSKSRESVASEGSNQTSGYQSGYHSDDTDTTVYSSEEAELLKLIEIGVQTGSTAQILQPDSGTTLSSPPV

For `COc1ccc2c(Oc3ccc(Nc4nccc5[nH]cc(-c6ccc(F)cc6)c(=O)c45)cc3F)ccnc2c1` [Comparative compound A, reference compound], the “Tumor growth inhibition rate, % TGI” value in the data set on U87MG tumor was 55.3%.

Regarding `O=c1c(-c2ccc(F)cc2)c[nH]c2ccnc(Nc3ccc(Oc4ccnc5cc(OCCO)ccc45)c(F)c3)c12` [Comparative compound C, reference compound], in data set [1] (5 mg/kg i.g.), the CL stood at 31.7 mL/min/kg and the distribution volume (Vz) (commonly the apparent volume that relates the amount in the body to the concentration in plasma or blood) came out at 7.89 L/kg. In data set [1] (rat, plasma, iv, 1 mg/kg i.v.), the AUC(0-t) – broadly, the area under the concentration-time curve up to a stated or last time point – was 2290 ng·h/mL; the maximum concentration (Cmax) (commonly the highest concentration seen after dosing) was determined as 970 ng/mL; the clearance (as a rule, the volume of plasma or blood freed of the substance per unit of time) is 4.83 mL/min/kg; the half-life – broadly, how long it takes for the measured level to halve – is 2.35 h. Moreover, in data set [1] (rat, plasma, iv, 1 mg/kg i.v., read-out: Vz), the Vd came to 1.21 L/kg. Also, in data set [1] (rat, plasma, oral, 5 mg/kg i.g. vs 1 mg/kg i.v., read-out: F (absolute bioavailability)), the bioavailability (commonly the share of a dose that reaches the circulation, judged against a reference dose that is usually intravenous) turned out to be 16.2%. Also, in data set [1] (rat, plasma, po, 5 mg/kg i.g.), the area under the curve AUC(0-t) worked out at 1850 ng·h/mL, the Cmax was 530 ng/mL and the half-life was 2.14 h.

With `COC(C)(C)COc1ccc2c(Oc3ccc(Nc4nccc5[nH]cc(-c6ccc(F)cc6)c(=O)c45)cc3F)ccnc2c1` [Comparative compound D, reference compound], the IC50 (as a rule, the concentration needed to halve the response being measured) on VEGFR-2 (h) stood at 60 nM. This lies in the double-digit nanomolar range.

`COc1cc2c(Oc3ccc(Nc4nccc5[nH]cc(-c6ccc(F)cc6)c(=O)c45)cc3F)ccnc2cc1OCC(C)(C)O` [Example 1, 5-((3-fluoro-4-((7-(2-hydroxy-2-methylpropoxy)-6-methoxyquinolin-4-yl)oxy)-phenyl)amino)-3-(4-fluorophenyl)-1,6-naphthyridin-4(1H)-one] displayed an IC50 against c-Met (h) of 19.4 nM. This counts as double-digit nanomolar.

With `COc1cc2c(Oc3ccc(Nc4nccc5[nH]cc(-c6ccc(F)cc6)c(=O)c45)cc3F)ccnc2cc1OCC(C)O` (centres unmarked) [Example 2, 5-((3-fluoro-4-((7-(2-hydroxypropoxy)-6-methoxyquinolin-4-yl)oxy)phenyl)-amino)-3-(4-fluorophenyl)-1,6-naphthyridin-4(1H)-one], the IC50 against c-Met (h) is 15.6 nM.

On c-Met (h), `COc1cc2c(Oc3ccc(Nc4nccc5[nH]cc(-c6ccccc6)c(=O)c45)cc3F)ccnc2cc1OCC(C)(C)O` [Example 3, 5-((3-fluoro-4-((7-(2-hydroxy-2-methylpropoxy)-6-methoxyquinolin-4-yl)oxy)-phenyl)amino)-3-phenyl-1,6-naphthyridin-4(1H)-one] gave an IC50 of 20.1 nM.

For `CC(C)(O)COc1ccc2c(Oc3ccc(Nc4nccc5[nH]cc(-c6ccccc6F)c(=O)c45)cc3F)ccnc2c1` [Example 5, 5-((3-fluoro-4-((7-(2-hydroxy-2-methylpropoxy)quinolin-4-yl)oxy)phenyl)amino)-3-(2-fluorophenyl)-1,6-naphthyridin-4(1H)-one], the IC50 on c-Met (h) amounted to 9.4 nM.

With `CC(C)(O)COc1ccc2c(Oc3ccc(Nc4nccc5[nH]cc(-c6cccc(F)c6)c(=O)c45)cc3F)ccnc2c1` [Example 6, 5-((3-fluoro-4-((7-(2-hydroxy-2-methylpropoxy)quinolin-4-yl)oxy)phenyl)amino)-3-(3-fluorophenyl)-1,6-naphthyridin-4(1H)-one], the IC50 against c-Met (h) was 7.9 nM.

At c-Met (h), `COc1cc2nccc(Oc3ccc(Nc4nccc5[nH]cc(-c6ccc(F)cc6)c(=O)c45)cc3F)c2cc1OCC(C)(C)O` [Example 8, 5-((3-fluoro-4-((6-(2-hydroxy-2-methylpropoxy)-7-methoxyquinolin-4-yl)oxy)-phenyl)amino)-3-(4-fluorophenyl)-1,6-naphthyridin-4(1H)-one] yielded an IC50 of 16.8 nM.

With `COc1cc2nccc(Oc3ccc(Nc4nccc5[nH]cc(-c6ccccc6)c(=O)c45)cc3F)c2cc1OCC(C)(C)O` [Example 9, 5-((3-fluoro-4-((6-(2-hydroxy-2-methylpropoxy)-7-methoxyquinolin-4-yl)oxy)-phenyl)amino)-3-phenyl-1,6-naphthyridin-4(1H)-one], on c-Met (h), 13.3 nM corresponded to half-maximal inhibition (IC50). This IC50 and that of the compound before are within 1.5-fold of each other.

With `Cn1cc(-c2ccc(F)cc2)c(=O)c2c(Nc3ccc(Oc4ccnc5cc(OCC(C)(C)O)ccc45)c(F)c3)nccc21` [Example 10, 5-((3-fluoro-4-((7-(2-hydroxy-2-methylpropoxy)quinolin-4-yl)oxy)phenyl)amino)-3-(4-fluorophenyl)-1-methyl-1,6-naphthyridin-4(1H)-one], the IC50 was 12.7 nM against c-Met (h) and over 5000 nM on VEGFR-2 (h).

In the case of `CCn1cc(-c2ccc(F)cc2)c(=O)c2c(Nc3ccc(Oc4ccnc5cc(OCC(C)(C)O)ccc45)c(F)c3)nccc21` [Example 11, 1-ethyl-5-((3-fluoro-4-((7-(2-hydroxy-2-methylpropoxy)quinolin-4-yl)oxy)phenyl)-amino)-3-(4-fluorophenyl)-1,6-naphthyridin-4(1H)-one], the IC50 at c-Met (h) is 9.5 nM; against VEGFR-2 (h), over 5000 nM.

With `CCCn1cc(-c2ccc(F)cc2)c(=O)c2c(Nc3ccc(Oc4ccnc5cc(OCC(C)(C)O)ccc45)c(F)c3)nccc21` [Example 12, 5-((3-fluoro-4-((7-(2-hydroxy-2-methylpropoxy)quinolin-4-yl)oxy)phenyl)amino)-3-(4-fluorophenyl)-1-propyl-1,6-naphthyridin-4(1H)-one], the IC50 against c-Met (h) is 7.2 nM; against VEGFR-2 (h), over 5000 nM.

Regarding `CC(C)n1cc(-c2ccc(F)cc2)c(=O)c2c(Nc3ccc(Oc4ccnc5cc(OCC(C)(C)O)ccc45)c(F)c3)nccc21` [Example 13, 5-((3-fluoro-4-((7-(2-hydroxy-2-methylpropoxy)quinolin-4-yl)oxy)phenyl)amino)-3-(4-fluorophenyl)-1-isopropyl-1,6-naphthyridin-4(1H)-one], the values for the IC50 against c-Met (h) and on VEGFR-2 (h) were 9 nM and over 5000 nM, respectively.

As to `CC(C)(O)COc1ccc2c(Oc3ccc(Nc4nccc5c4c(=O)c(-c4ccc(F)cc4)cn5C4CC4)cc3F)ccnc2c1` [Example 14, 1-cyclopropyl-5-((3-fluoro-4-((7-(2-hydroxy-2-methylpropoxy)quinolin-4-yl)oxy)-phenyl)amino)-3-(4-fluorophenyl)-1,6-naphthyridin-4(1H)-one], the IC50 was 14.3 nM against c-Met (h) and over 5000 nM against VEGFR-2 (h).

Turning to `CC(C)(O)COc1ccc2c(Oc3ccc(Nc4nccc5c4c(=O)c(-c4ccc(F)cc4)cn5CC4CO4)cc3F)ccnc2c1` (centres unmarked) [Example 15, 5-((3-fluoro-4-((7-(2-hydroxy-2-methylpropoxy)quinolin-4-yl)oxy)phenyl)amino)-3-(4-fluorophenyl)-1-(oxiran-2-ylmethyl)-1,6-naphthyridin-4(1H)-one], the half-maximal inhibitory concentration (IC50) was 22.4 nM on c-Met (h) and over 5000 nM at VEGFR-2 (h).

For the compound `COCCn1cc(-c2ccc(F)cc2)c(=O)c2c(Nc3ccc(Oc4ccnc5cc(OCC(C)(C)O)ccc45)c(F)c3)nccc21` [Example 16, 5-((3-fluoro-4-((7-(2-hydroxy-2-methylpropoxy)quinolin-4-yl)oxy)phenyl)amino)-3-(4-fluorophenyl)-1-(2-methoxyethyl)-1,6-naphthyridin-4(1H)-one], the IC50 against c-Met (h) is 14.4 nM; against VEGFR-2 (h), over 5000 nM.

Consider `CC(C)(O)COc1ccc2c(Oc3ccc(Nc4nccc5c4c(=O)c(-c4ccc(F)cc4)cn5CCO)cc3F)ccnc2c1` [Example 17, 5-((3-fluoro-4-((7-(2-hydroxy-2-methylpropoxy)quinolin-4-yl)oxy)phenyl)amino)-3-(4-fluorophenyl)-1-(2-hydroxyethyl)-1,6-naphthyridin-4(1H)-one], for which the figures for the IC50 on c-Met (h) and against VEGFR-2 (h) were 40 nM and over 5000 nM, respectively.

In the case of `CC(C)(O)COc1ccc2c(Oc3ccc(Nc4nccc5c4c(=O)c(-c4ccc(F)cc4)cn5Cc4ccccc4)cc3F)ccnc2c1` [Example 18, 1-benzyl-5-((3-fluoro-4-((7-(2-hydroxy-2-methylpropoxy)quinolin-4-yl)oxy)phenyl)-amino)-3-(4-fluorophenyl)-1,6-naphthyridin-4(1H)-one], the IC50 against c-Met (h) was 40.3 nM; on VEGFR-2 (h), over 5000 nM.
